PubChem BioAssay AID1963838 (Molecular Pharmacology Branch, DTP, NCI, 2024)

System: 855422-203-R-J1-PDC complex spheroid viability
Test: Anticancer human tumor 855422-203-R-J1-PDC patient-derived bladder carcinoma cell line growth inhibition [POLQ]
Conditions: for IC50: curve of first compound; for viability, T/C: stronger effect = lower value
Summary of the method: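 PDC + HUVEC + MSC complex spheroids; POLQ inhibitors ± partner drugs; top conc. at/near clinical Cmax, else 10 microM (SN-38 1 microM), half-log dilutions; 37 degrees C, 5% CO2.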

[1] = second compound 0.0316 µM, first compound 0.0316 µM
[2] = second compound 0.0316 µM, first compound 0.1 µM
[3] = second compound 0.0316 µM, first compound 0.316 µM
[4] = second compound 0.0316 µM, first compound 1 µM
[5] = second compound 0.0316 µM, first compound 3.16 µM
[6] = second compound 0.0316 µM, first compound 10 µM
[7] = second compound 0.1 µM, first compound 0.0316 µM
[8] = second compound 0.1 µM, first compound 0.1 µM
[9] = second compound 0.1 µM, first compound 0.316 µM
[10] = second compound 0.1 µM, first compound 1 µM
[11] = second compound 0.1 µM, first compound 3.16 µM
[12] = second compound 0.1 µM, first compound 10 µM
[13] = second compound 0.316 µM, first compound 0.0316 µM
[14] = second compound 0.316 µM, first compound 0.1 µM
[15] = second compound 0.316 µM, first compound 0.316 µM
[16] = second compound 0.316 µM, first compound 1 µM
[17] = second compound 0.316 µM, first compound 3.16 µM
[18] = second compound 0.316 µM, first compound 10 µM
[19] = second compound 1 µM, first compound 0.0316 µM
[20] = second compound 1 µM, first compound 0.1 µM
[21] = second compound 1 µM, first compound 0.316 µM
[22] = second compound 1 µM, first compound 1 µM
[23] = second compound 1 µM, first compound 3.16 µM
[24] = second compound 1 µM, first compound 10 µM
[25] = second compound 3.16 µM, first compound 0.0316 µM
[26] = second compound 3.16 µM, first compound 0.1 µM
[27] = second compound 3.16 µM, first compound 0.316 µM
[28] = second compound 3.16 µM, first compound 1 µM
[29] = second compound 3.16 µM, first compound 3.16 µM
[30] = second compound 3.16 µM, first compound 10 µM
[31] = second compound 10 µM, first compound 0.0316 µM
[32] = second compound 10 µM, first compound 0.1 µM
[33] = second compound 10 µM, first compound 0.316 µM
[34] = second compound 10 µM, first compound 1 µM
[35] = second compound 10 µM, first compound 3.16 µM
[36] = second compound 10 µM, first compound 10 µM
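Note: spheroids exposed to compounds for seven days before readout.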

## CCc1cc2c(N3CCc4c(cc(Cn5ccnc5)cc4-c4cn(C)nc4C(F)(F)F)C3=O)ccnc2c(OC)n1 + Nc1ccc(C#CCN(C(=O)Cc2ncc(C(F)(F)F)cc2C(F)(F)F)c2ccc(F)cc2)nn1
Second compound 0.0316 µM
  IC50: 9.24 µM
Second compound 0.1 µM
  IC50: 9.09 µM
Second compound 0.316 µM
  IC50: 6.82 µM
Second compound 1 µM
  IC50: 8.55 µM
Second compound 3.16 µM
  IC50: 7.63 µM
Second compound 10 µM
  IC50: 6.77 µM
[1]
  viability, T/C: 107%
[2]
  viability, T/C: 142%
[3]
  viability, T/C: 133%
[4]
  viability, T/C: 93.7%
[5]
  viability, T/C: 87%
[6]
  viability, T/C: 46.4%
[7]
  viability, T/C: 125%
[8]
  viability, T/C: 142%
[9]
  viability, T/C: 130%
[10]
  viability, T/C: 93.1%
[11]
  viability, T/C: 76.3%
[12]
  viability, T/C: 45.8%
[13]
  viability, T/C: 136%
[14]
  viability, T/C: 147%
[15]
  viability, T/C: 133%
[16]
  viability, T/C: 88.1%
[17]
  viability, T/C: 72.6%
[18]
  viability, T/C: 39.4%
[19]
  viability, T/C: 98.1%
[20]
  viability, T/C: 121%
[21]
  viability, T/C: 109%
[22]
  viability, T/C: 115%
[23]
  viability, T/C: 72.2%
[24]
  viability, T/C: 46.5%
[25]
  viability, T/C: 148%
[26]
  viability, T/C: 131%
[27]
  viability, T/C: 125%
[28]
  viability, T/C: 124%
[29]
  viability, T/C: 72.6%
[30]
  viability, T/C: 43.1%
[31]
  viability, T/C: 98.9%
[32]
  viability, T/C: 122%
[33]
  viability, T/C: 112%
[34]
  viability, T/C: 111%
[35]
  viability, T/C: 72.6%
[36]
  viability, T/C: 38.5%

## COc1ccc([C@@H](O)c2cc(-c3ncnc4cc(N5CCOCC5)ccc34)c(F)cc2Cl)nn1 + Nc1ccc(C#CCN(C(=O)Cc2ncc(C(F)(F)F)cc2C(F)(F)F)c2ccc(F)cc2)nn1
Second compound 0.0316 µM
  IC50: > 10 µM
Second compound 0.1 µM
  IC50: > 10 µM
Second compound 0.316 µM
  IC50: > 10 µM
Second compound 1 µM
  IC50: > 10 µM
Second compound 3.16 µM
  IC50: > 10 µM
Second compound 10 µM
  IC50: 9.83 µM
[1]
  viability, T/C: 110%
[2]
  viability, T/C: 105%
[3]
  viability, T/C: 89%
[4]
  viability, T/C: 94.5%
[5]
  viability, T/C: 106%
[6]
  viability, T/C: 58.4%
[7]
  viability, T/C: 91.8%
[8]
  viability, T/C: 104%
[9]
  viability, T/C: 104%
[10]
  viability, T/C: 98.1%
[11]
  viability, T/C: 106%
[12]
  viability, T/C: 59.4%
[13]
  viability, T/C: 115%
[14]
  viability, T/C: 126%
[15]
  viability, T/C: 86.4%
[16]
  viability, T/C: 98.5%
[17]
  viability, T/C: 110%
[18]
  viability, T/C: 54.3%
[19]
  viability, T/C: 99.8%
[20]
  viability, T/C: 96.8%
[21]
  viability, T/C: 93.4%
[22]
  viability, T/C: 104%
[23]
  viability, T/C: 111%
[24]
  viability, T/C: 51%
[25]
  viability, T/C: 94.6%
[26]
  viability, T/C: 105%
[27]
  viability, T/C: 87.5%
[28]
  viability, T/C: 94.2%
[29]
  viability, T/C: 90.7%
[30]
  viability, T/C: 57.4%
[31]
  viability, T/C: 92.3%
[32]
  viability, T/C: 92.5%
[33]
  viability, T/C: 98.3%
[34]
  viability, T/C: 86.2%
[35]
  viability, T/C: 98.6%
[36]
  viability, T/C: 49.3%
